Where two headings read alike, the source gives them in different places.
Assays:
[1] = target: Jurkat cells expressing CXCR4 (Homo sapiens (Human), UniProt P61073); test: Chemokine (CXCL12-AF647) binding inhibition assay; details: CXCL12-AF647 25 ng/mL, read-out: IC50 CXCL-12 binding Jurkat
In short: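 Cells in HBSS, 20 mM HEPES, 0.2% BSA, pH 7.4, preincubated 15 min at room temperature with compound, then 25 ng/mL CXCL12-AF647 for 30 min. After washing and paraformaldehyde fixation, bound ligand read by flow cytometry; percent inhibition calculated from MFI relative to unlabeled and ligand-only controls.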

[2] = Mouse brain uptake assay (pharmacokinetics and brain penetration after IV administration), 0-1 h, 3 time points; format: in vivo, Male CD1 Mice; details: male; for Kp: CD1, mouse, brain and plasma, iv, 3 mg/kg, read-out: Kp (brain/plasma drug concentration ratio); for clearance / half-life: CD1, plasma, 3 time points; for clearance / half-life / Kp uu: Mouse, 0-1 h; for clearance / half-life / AUC(0-t) / Kp uu: 3 mg/kg IV; for half-life: read-out: t½ (converted); for AUC(0-t): CD1, time zero to 1 hr; for Kp uu: CD1, brain and plasma, read-out: Kp, uu (unbound brain/unbound plasma drug concentration ratio)
Description: Example 29: Pharmacokinetics and Brain Penetration Experiment to Determine Brain and Plasma Concentrations of Compounds After IV Administration to Male CD1 Mice or Male SD Rat
The study design (9 animals) consisted of administrating the drug (IV: 3 mg/kg (5 mL/kg) via tail vein injection) and collecting samples at terminal bleeding for plasma and brain at 0.083, 0.5 and 1 h. The blood collection was performed as follows: the animal was restrained manually and approximately 150 μL blood/time point was collected into a dipotassium EDTA tube via retro orbital puncture under anesthesia with isoflurane. The blood sample was put on ice and centrifuged to obtain a plasma sample (2000 g, 5 min under 4° C.) within 15 minutes. The brain collection was performed as follows: a mid-line incision was made in the animal's scalp and the skin was retracted. Using small bone cutters and rongeurs, the skull overlying the brain was removed. The brain was removed using a spatula and the brain rinsed with cold saline. The brain was placed in screw-top tubes, and the tubes were stored at −70° C. until analysis. The IV dosing solution was prepared in 50 mM citrate buffer (pH 4.0) at 0.6 mg/mL.
Plasma Sample Preparation:
An aliquot of 30 μL sample was added to 150 μL MeCN containing 50 ng/mL IS (Dexamethasone). The mixture was vortexed for 5 min and centrifuged at 14,000 rpm for 5 min. An aliquot of 5 μL supernatant was injected for LC-MS/MS analysis.
Brain Sample Preparation:
An aliquot of 30 μL brain homogenate (brain:PBS=1:3, w/v) sample was added to 150 μL IS in ACN (Dexamethasone, 50 ng/mL). The mixture was vortexed for 5 min and centrifuged at 14,000 rpm for 5 min. An aliquot of 5 μL supernatant was injected for LC-MS/MS analysis.
The sample analysis was performed on LCMS/MS-003 (API4000, triple quadruple) under the following conditions: positive ion, ESI, MRM detection using dexamethasone as internal standard. HPLC conditions: mobile phase A: H2O (0.025% formic acid (FA) with 1 mM NH4OAc); mobile phase B: MeOH (0.025% FA with 1 mM NH4OAc) on Waters X-Bridge C18 (2.1×50 mm, 2.5 μm) column at 60° C.

[3] = Fraction of drug unbound to plasma proteins, mouse; format: in vitro ADME; details: read-out: Fu (p) %
[4] = Fraction of drug unbound to brain proteins, mouse; format: in vitro ADME; details: read-out: Fu (b) %
[5] = Mouse brain, read-out: AUClast (b)
[6] = Mouse plasma, read-out: AUClast (p)
[7] = Mouse plasma proteins (Table 9)

Chain of Jurkat cells expressing CXCR4 (P61073 whole entry): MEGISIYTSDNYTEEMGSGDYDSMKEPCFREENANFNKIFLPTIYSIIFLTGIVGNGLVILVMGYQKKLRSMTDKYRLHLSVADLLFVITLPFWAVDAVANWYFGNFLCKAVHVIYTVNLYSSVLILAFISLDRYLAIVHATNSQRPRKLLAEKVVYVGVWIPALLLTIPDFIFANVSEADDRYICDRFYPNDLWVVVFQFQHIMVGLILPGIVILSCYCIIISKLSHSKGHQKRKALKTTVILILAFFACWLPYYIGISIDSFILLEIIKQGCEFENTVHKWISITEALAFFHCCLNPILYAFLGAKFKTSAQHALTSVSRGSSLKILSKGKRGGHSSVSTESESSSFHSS

SMILES: Cc1cccnc1[C@@H]1CCC[C@H](c2cn3c(-c4cccnc4)cccc3n2)N1C [Compound I-6]
- IC50 [1]: 100 to 1000 nM
- Kp [2]: 0.61
- clearance [2]: 48.3 mL/min/kg
- half-life [2]: 216 min
- AUC(0-t) [2, 5]: 326 ng·h/mL
- AUC(0-t) [2, 6]: 531 ng·h/mL

SMILES: Cc1cccnc1[C@@H]1CCC[C@H](c2nc3cccc(N4CCN(C)CC4)n3c2Cl)N1C [Compound I-18]
- fraction unbound [3, 7]: 0.054
- fraction unbound ([4]; Mouse brain proteins (Table 9)): 0.002
- IC50 [1]: 0.01 to 100 nM
- Kp uu [2]: 0.43
- Kp [2]: 11.8
- clearance [2]: 245 mL/min/kg
- half-life [2]: 20.6 min
- AUC(0-t) [2, 5]: 2060 ng·h/mL
- AUC(0-t) [2, 6]: 175 ng·h/mL

SMILES: CN1CCN(c2cccc3nc([C@@H]4CCC[C@H](c5ncccc5Cl)N4)cn23)CC1 (single isomer, unassigned) [Compound I-189]
- IC50 [1]: 0.01 to 100 nM

SMILES: CN1CCN(c2cccc3nc([C@H]4CCC[C@@H](c5ncccc5Cl)N4)cn23)CC1 (racemic) [Compound I-149]
- fraction unbound [3, 7]: 0.099
- fraction unbound ([4]; Mouse brain proteins (Table 9)): 0.026
- IC50 [1]: 0.01 to 100 nM
- Kp uu [2]: 0.38
- Kp [2]: 1.45
- clearance [2]: 207 mL/min/kg
- half-life [2]: 22 min
- AUC(0-t) [2, 5]: 295 ng·h/mL
- AUC(0-t) [2, 6]: 203 ng·h/mL

SMILES: CCN1CCN(c2cccc3nc([C@H]4CCC[C@@H](c5ncccc5C)N4C)c(Br)n23)CC1 [Compound I-19]
- fraction unbound [3, 7]: 0.028
- fraction unbound ([4]; Mouse brain proteins (Table 9)): 0.001
- IC50 [1]: 0.01 to 100 nM
- Kp uu [2]: 0.32
- Kp [2]: 8.84
- clearance [2]: 223 mL/min/kg
- half-life [2]: 21.8 min
- AUC(0-t) [2, 5]: 1690 ng·h/mL
- AUC(0-t) [2, 6]: 191 ng·h/mL

SMILES: Cc1cccnc1[C@@H]1CCC[C@H](c2cn3c(N4CCN(C)CC4)cccc3n2)N1 [Compound I-187]
- fraction unbound [3, 7]: 0.249
- fraction unbound ([4]; Mouse brain proteins (Table 9)): 0.071
- IC50 [1]: 0.01 to 100 nM
- Kp uu [2]: 0.05
- Kp [2]: 0.22
- clearance [2]: 127 mL/min/kg
- half-life [2]: 21.2 min
- AUC(0-t) [2, 5]: 76.5 ng·h/mL
- AUC(0-t) [2, 6]: 335 ng·h/mL

SMILES: Cc1cccnc1[C@@H]1CCC[C@H](c2nc3cccc(N4CCN(C)CC4)n3c2Cl)N1 [Compound I-146]
- fraction unbound [3, 7]: 0.053
- fraction unbound ([4]; Mouse brain proteins (Table 9)): 0.006
- IC50 [1]: 0.01 to 100 nM
- Kp uu [2]: 0.21
- Kp [2]: 1.86
- clearance [2]: 7.22 mL/min/kg
- half-life [2]: 361 min
- AUC(0-t) [2, 5]: 1640 ng·h/mL
- AUC(0-t) [2, 6]: 884 ng·h/mL

SMILES: Cc1cccnc1[C@@H]1CCC[C@H](c2nc3cccc(N4CCC(N(C)C)CC4)n3c2Cl)N1C [Compound I-114]
- fraction unbound [3, 7]: 0.028
- fraction unbound ([4]; Mouse brain proteins (Table 9)): 0.003
- IC50 [1]: 0.01 to 100 nM
- Kp uu [2]: 0.08
- Kp [2]: 0.76
- clearance [2]: 117 mL/min/kg
- half-life [2]: 43.2 min
- AUC(0-t) [2, 5]: 205 ng·h/mL
- AUC(0-t) [2, 6]: 267 ng·h/mL

SMILES: CN1CCN(c2cccc3nc([C@H]4CCC[C@@H](c5ncccc5Cl)N4)cn23)CC1 (single isomer, unassigned) [Compound I-188]
- fraction unbound ([3]; Mouse plasma proteins (Table 12)): 0.143
- fraction unbound ([4]; Mouse brain proteins (Table 12)): 0.054
- IC50 [1]: 0.01 to 100 nM

SMILES: Cc1cccnc1[C@@H]1CCC[C@H](c2nc3cccc(N4CCN(C(C)C)CC4)n3c2Br)N1C [Compound I-20]
- fraction unbound [3, 7]: 0.021
- fraction unbound ([4]; Mouse brain proteins (Table 9)): 0.001
- IC50 [1]: 0.01 to 100 nM
- Kp uu [2]: 0.3
- Kp [2]: 6.29
- clearance [2]: 173 mL/min/kg
- half-life [2]: 22.4 min
- AUC(0-t) [2, 5]: 1520 ng·h/mL
- AUC(0-t) [2, 6]: 241 ng·h/mL
